Each structure is given as a SMILES string. “And” between values parts separate entries of the source, which are not always exact repeats. Equal entries are not always repeated.

Here are results for three molecules from US20180369421A1, “METHOD FOR REDUCING THE PLACEBO EFFECT IN CLINICAL TRIALS” (priority 2017, published 2018).

The conditions of data set [1]: cited from earlier work.
For data set [2], the system named is constipation in subjects already on an opioid pain medication. Briefly: Clinical trial of a new product for the treatment of constipation in subjects already on an opioid pain medication, with Acebo arms (Example 2). Type of data set: in vivo, human. The note with it: Acebo arm. From the text:
A clinical trial is being conducted to measure the efficacy of a new product for the treatment of constipation in subjects already on an opioid pain medication. Nine hundred sixty (960) subjects are enrolled. All are maintained on their present pain medication regimen supplied by the clinical treatment team. The investigational product is supplied by the investigational treatment team as well. The opioid pain medication regimen continues as it was; the investigational product is taken either once or twice per day in a randomized manner.
(§1) All subjects sign an informed consent document prior to beginning the clinical research trial. They are all informed of the following: • 1. 300 of the subjects will be randomized to the new investigational medication, product Y, once daily, and the known benefits and the known potential side effects of Product Y are disclosed. To keep the study blinded, subjects will take a pill twice a day, but one of their doses will be a placebo. • 2. 300 of the subjects will be randomized to the new investigational medication, product Y, twice daily, and the known benefits and the known potential side effects of Product Y are disclosed. • 3. 300 of the subjects will be randomized to placebo taken twice a day. • 4.
5. […] Because you could receive an Acebo, you could get worse.

The test system of data set [3] is constipation in subjects not on any adjunctive medication that could cause constipation. Briefly: Clinical trial of two doses of a new product for the treatment of constipation in subjects not on adjunctive medication that could cause constipation, with Acebo arms (Example 3). Particulars: Acebo arm, twice daily. Type of data set: in vivo, human.
Text: A clinical trial is being conducted to measure of the efficacy of two different doses of a new product for the treatment of constipation in subjects not on any adjunctive medication that could cause constipation. Nine hundred sixty (960) subjects are enrolled. The investigational product is supplied by the investigational treatment team. Subjects who have been on both of the potential Acebos, nortriptyline and St John's wort, will be excluded from this study.
as §1, with “the known and potential side” for “the known potential side”, “• 4. […]” for “• 4.”

The conditions of data set [4]: drugs.com; cited from earlier work.

Consider `Clc1cccc(Cl)c1N=C1NCCN1` [clonidine], for which the “depression among people who took the drug and reported side effects” value in data set [1] (932 of 31,961 people reported to have side effects) is ~3% and 2.92%.
Consider `N=C(N)NC(=O)Cc1c(Cl)cccc1Cl` [guanfacine], for which the “depression as side effect” value in data set [1] (in vivo) is given as “does not cause depression”. Besides, in data set [1] (on average), the “fatigue (tiredness), share of people” value is reported as 16%; the “lethargy, share of people” value was 6%; the “somnolence, share of people” value was 34%.
`CNCCC=C1c2ccccc2CCc2ccccc21` [nortriptyline] returned a worsening in data set [2] of 2%. Besides, in data set [3], the “worsening in abdominal discomfort” value amounted to 1%. The “constipation as side effect, share of the time” value in data set [4] is not below 10%.
